Where two headings read alike, the source gives them in different places.

For series [1], the system named is two-spotted spider mite (Tetranychus urticae). Description: Synergist activity of compound 599 against two-spotted spider mite. In kind it is in vivo. The method, then: From the first pair of leaves of a 1 week old bean plant leaf-discs of […] diameter were cut which were treated by dipping them (5 min) into the test solution consisting of the active ingredient and the synergist in definite concentrations. For the preparation of the stock solutions of required concentration, 10% acetone as co-solvent and 0.1% Tween-80 as detergent were applied. The dried leaf-discs were placed on wet surface and they were infected with […]-up female mites per leaf. […] The experiment was performed in 4 replica.
Synergist activity of compound 599 with various specific acaricides was investigated against two-spotted spider mite (Tetranychus urticae), by the method described in Example 8.

In series [2] the test system is resistant house fly, INSEL strain. Description: Synergistic activity on resistant house fly, INSEL strain. In kind it is in vivo, Musca domestica. The conditions noted are these: active ingredient alone. The method, then: (§1) Investigation of Synergistic Activity on Resistant House Fly (Musca domestica) Populations
(§2) Investigation was carried out as described in biological Example 1. LD50 values and synergist ratios were determined as given in Example 2.

Series [3] concerns resistant house fly, IX strain. As to the kind of experiment: Synergistic activity on resistant house fly, IX strain. Type of series: in vivo, Musca domestica. The conditions noted are these: active ingredient alone. The method, then: as §1, §2
Series [4] deals with pea aphid (Acyrthosiphon pisun). Description: Synergist activity against pea aphid, field trial. Type of series: in vivo. The following applies: two days after treatment. The method, then:
Synergist Activity Against Pea Aphid (Acyrthosiphon pisun)
Synergist activity of compound No. 599 was tested against pea aphid (Acyrthosiphon pisun) in field trials on small plots (10 m^2). 300 l/ha spray volume was applied using motoric sprayer (Maruyama). Efficacy was expressed by the average number of aphids/leaf before, and two days after the treatment, respectively. (Henderson and Tilton: J. Econ. Entomol., 48:157, 1955).

The test system of series [5] is two-spotted spider mite (Tetranychus urticae). As to the kind of experiment: Synergism of acaricidal effect on two-spotted spider mite (leaf-disc dip). Type of series: in vivo. The following applies: 48 h. Here is the method: Synergism of Acaricidal Effect Investigated on Two-spotted Spider Mite (Tetranychus urticae)
From the first pair of leaves of a 1 week old bean plant leaf-discs of […] diameter were cut which were treated by dipping them (5 min) into the test solution consisting of the active ingredient and the synergist in definite concentrations. For the preparation of the stock solutions of required concentration, 10% acetone as co-solvent and 0.1% Tween-80 as detergent were applied. The dried leaf-discs were placed on wet surface and they were infected with […]-up female mites per leaf. After 48 hours the mortality was recorded using microscope and a brush. The experiment was performed in 4 replica.

For series [6], the system named is house fly (Musca domestica). The following applies: in vivo, topical_or_ocular, 1440 min. The method, then:
Investigation of Synergistic Activity on House Fly (Musca domestica) Following Topical Application
In two parallel experiments 10 female. 2-4 day old house flies were treated on the vental side of their thorax with 0.2 μl of the test solution, with the help of Hamilton MicroLab P microdispenser. Beside fixed synergist dose of 1000 ng/fly the animals were treated with carbofuran at a dose of 20 ng/fly. For solvent cellosolve was used. Selection and counting of the flies were performed under the action of CO2. After treatment the flies were kept in plastic cups covered with tulle. Mortality after 24 hours was expressed in %.

Series [7] relates to cotton bollworm (Helicoverpa armigera). Description: Synergistic activity on cotton bollworm following topical application. The conditions noted are these: in vivo. Here is the method: Investigation of Synergistic Activity on Cotton Bollworm (Helicoverpa armigera) Following Topical Application
Treatment was performed similarity as described in Example 1. but L2 stadium grubs of cotton bollworms (Helicoverpa armigera) were treated as test animals. From the 24 hour dose--mortality data the LD50 (ng/grub) values were determined using probit analysis. None of the synergists acted at the applied 1000 ng/grub dose. Synergist ratio was calculated as the quotient of the LD50 values of carbofuran administered alone, and with the synergist. The experiments were performed in 2-4 replica.

For series [8], the system named is house fly (Musca domestica). Description: Effect on fecundity, on house fly. Type of series: in vivo. The following applies: 500 ppm in granulated sugar, 48 hours feeding; eggs of next 10 days. The method, then:
Investigation of the Effect on Fecundity, on House Fly (Musca domestica)
Groups consisting of freshly hatched 50 male and 50 female flies were fed during 48 hours with granulated sugar comprising 500 ppm of material No. 441 and 484 of the present invention respectively, and the eggs layed on the next 10 days were raised. The fecundity-hindering effect was expressed as the quotient of the emerged flies in the treated and untreated groups. The experiments were performed in 4 replica.

A further series has as its system mammals. The conditions noted are these: cited from earlier work.
The subject of a further series is flies. As to the kind of experiment: Comparative investigations with known reference synergists on flies treated with carbofuran. Type of series: in vivo. The following applies: flies treated with carbofuran and 1000 ng of the synergist. The source says: These SR50 ratios were compared to those of the new compounds prepared by us.
Series [9] relates to house fly (Musca domestica). As to the kind of experiment: Effect of the active ingredient:synergist ratio on the synergistic activity (flies). The method, then:
Effect of the Active Ingredient:Synergist Ratio on the Synergistic Activity
Treatment was performed as described in Example 1. using Hamilton MicroLab P microdispenser. In two parallel experiments 10 female -3 day old flies were treated on the ventral side of their thorax with 0.2 μl test solution. Beside 1000-400-200-80 ng/fly fixed doses of the synergist they were treated with constant 20 ng/fly CARBOFURAN®. Selection and counting of the flies were performed under the action of CO2. After treatment the flies were kept in plastic cups covered with tulle. After 24 hours mortality % was recorded. Depending on the results the experiments were performed in 2-4 replica.

Where [10] appears, read: Acaricide/Synergist 1:0, 3 h, read-out: LC50.
[11] abbreviates: Acaricide/Synergist 1:0, 24 h, read-out: LC50.

By LC50 is commonly meant the concentration that kills 50% of the test population. In the case of `CC(C)(C)c1ccc(CCOc2ncnc3ccccc23)cc1` [FENAZAQUIN], the values for the 50% lethal concentration (LC50) in series [1] (setting [10]) and in series [1] (setting [11]) were more than 1000 µg/mL and 41.9 µg/mL, respectively.

For `Cc1nc(N(C)C)nc(OC(=O)N(C)C)c1C` [PIRIMICARB, reference compound], the LD50 in series [2] and in series [3] was more than 100000 ng/fly in each case. The “E (%)” value in series [4] (dose 80 act. ingr./ha) is listed as 86.3%; in series [4] (dose 250 act. ingr./ha) it was 93.8%.

Usually mortality stands for the share of the test organisms that died. For the molecule `CNC(=O)Oc1cccc2c1OC(C)(C)C2` [CARBOFURAN, reference compound], in series [2], the LD50 turned out to be 15375 ng/fly. The LD50 in [3] is recorded as more than 100000 ng/fly. Also, the “E (%)” value in series [4] (dose 110 act. ingr./ha) amounted to 98.0%. Also, in series [4] (dose 160 act. ingr./ha), the “E (%)” value worked out at 99.1%. For the same molecule, the LC50 in series [1] (24 h) is 164 µg/mL. In addition, in series [5], the mortality at 31 ppm is 13%, the mortality at 62 ppm amounted to 39%, the mortality at 125 ppm was found to be 44% and the mortality at 250 ppm amounted to 81%. In addition, in series [5], the mortality at 500 ppm stood at 90%.

On to `CC#CCOC(c1ccc2c(c1)OCO2)C(C)C` (centres unmarked) [Compound 484, 5-[2-Methyl-1-(2-butynyloxy)-propyl]-1,3-benzodioxole], for which the mortality % in series [6] was 63%. Further, the Synergist ratio in series [7] was more than 5. Also, in series [8], the “Hindering effect on fecundity” value is 90%.

`O=[N+]([O-])NC1=NCCN1Cc1ccc(Cl)nc1` [IMIDACLOPRID]: the “E (%)” value in [4] (dose 120 act. ingr./ha) stood at 98.4%.

Take `CCCCOCCOCCOCc1cc2c(cc1CCC)OCO2` [PBO]: the tumor provoking effect result with mammals is “suspected tumor provoking effect”.

`CCOC(=O)CSc1nc(C(C)(C)C)nn1C(=O)N(C)C` [TRIAZAMATE]: in [4] (dose 50 act. ingr./ha), the “E (%)” value was found to be 96.8%.

On to `CC#CCOCc1ccc2c(c1)OCO2` [Compound 441, 5-[(But-2-ynyloxy)-methyl]-1,3-benzodioxole], for which the “Synergist ratio SR50” value in the series on flies is listed as 25.70. The “24 hour mortality (%)” value in [9] (carbofuran 20 ng/fly + synergist 80 ng/fly) was 62%; in series [9] (carbofuran 20 ng/fly + synergist 200 ng/fly) it was 67%; in series [9] (carbofuran 20 ng/fly + synergist 400 ng/fly) it was 90%; in series [9] (house fly, in vivo, topical_or_ocular), 95%. The mortality % in [6] is on record as 97%. Besides, the Synergist ratio in [7] is more than 5. Also, the “Hindering effect on fecundity” value in [8] turned out to be 87%.

For `CCc1nn(C)c(C(=O)NCc2ccc(C(C)(C)C)cc2)c1Cl` [TEBUFENPYRAD], the LC50 in [1] (setting [10]) is more than 1000 µg/mL; in series [1] (setting [11]), 63.4 µg/mL.

The values above are taken from patent US6277867A, “Pesticide compounds, compositions and process for the preparation thereof” (priority 1995, dated 2001).
